Laboratory results from patent publication US4125538A, “Substituted 5-phenyl-2,3,4,5-tetrahydro-1,4-benzoxazepines” (Bristol-Myers Company, priority 1977, dated 1978).
Structures can show the parent of a compound that is named as a salt. Where two headings read alike, the source gives them in different places.

Assays:
[1] = test system: phenylquinone-induced writhing in the mouse; assay: Phenylquinone-induced writhing test in the mouse; assay type: in vivo; settings: for ED50: Mus musculus; for analgesic activity (in words): mouse, in vivo
Protocol: Compounds of formula I, and homologous and analogous compounds, were tested for analgesic activity by means of the phenylquinone-induced writhing test in the mouse, using the known analgesic, nefopam (5 methyl-1-phenyl-3,4,5,6-tetrahydro-1H-2,5-benzoxazocine), as a comparison standard. The method used was essentially that described by Siegmund et al. [Proc. Soc. exp. Biol. N. Y. 95, 729 (1957)]. Compounds were administered either subcutaneously (15 min) or orally (25 min) prior to the intraperitoneal injection of phenylquinone (2 mg/kg). […] The dose which produced a 50 percent reduction in the number of writhes, as compared to the control group, was called the ED50.
BL-R845 and nefopam were compared in additional phenylquinone-induced writhing tests in the mouse and rat, by various routes of administration.

[2] = test system: cough response in male guinea-pigs; assay: Antitussive activity in male guinea-pigs (electrically stimulated cough); assay type: in vivo, guinea-pig; settings: for inhibition in vivo at 10 mg/kg: Cavia porcellus, sc, 10 mg./kg. subcutaneously, cough tested at 30, 60 and 120 min, values of 30 or less not significantly different from saline controls, considered inactive or insufficiently active; for antitussive activity (in words): guinea pig, in vivo
Protocol: Compounds of formula I, and homologous and analogous compounds, were also tested for antitussive activity in male guinea-pigs, using a modification of the procedure of Friebel and Hahn [Med. Pharmacol. exp., 14, 78 (1966)]. Under general anesthesia, two stainless steel wires (0.2 mm diameter), stripped of their enamel insulation at the points of contact with the trachea, were wrapped around the trachea about 8 mm apart and then threaded under the skin and out through the back of the neck, one on each side. After 24 hrs, test animals were placed in a clear plastic cage and the cough threshold was determined by means of electrical stimulation. The following stimulation parameters were used: delay -- 0.01 msec, duration -- 0.6 msec and frequency -- 300 Hz. The minimal voltage (range 60-120 V) necessary to elicit a cough in less than 6 sec was determined. Each guinea-pig was stimulated 5 times at 30 sec intervals employing the predrug stimulation parameters at 30, 60 and 120 min following drug administration. A test animal was considered to be protected if more than 6 sec were required to produce a cough. Compounds were administered at a dosage of 10 mg./kg. subcutaneously. The percent inhibition of cough response was calculated as follows: % Inhibition = (A-B)/(A) × 100 a = number of coughs requiring <6 sec. stimulation after saline. B = number of coughs requiring <6 sec. stimulation after drug.

[3] = test system: phenylquinone-induced writhing in the rat; assay: Phenylquinone-induced writhing test in the rat; assay type: in vivo; settings: Table 4, rats
Excerpt: BL-[…] and nefopam were compared in additional phenylquinone-induced writhing tests in the mouse and rat, by various routes of administration.

mouse hot plate = assay: Mouse hot plate (thermal analgesic test); assay type: in vivo; settings: conventional thermal analgesic test
Excerpt: (§1) The analgesic profile for BL-[…] and nefopam resembles that of the narcotic antagonist analgesics rather than the narcotic drugs. […] Nevertheless,both BL-[…] and nefopam differ from the antagonist action of naloxone. […] These findings indicate that BL-[…] and nefopam act on different receptor sites from those affected by the antagonist analgesics.

rat tail flick = assay: Rat tail flick (thermal analgesic test); assay type: in vivo; settings: conventional thermal analgesic test
Excerpt: as §1

rodent writhing = assay: Rodent writhing tests; settings: in vivo
Excerpt: as §1, with “BL-[…] and nefopam were compared in additional phenylquinone-induced writhing tests in the mouse and rat, by various routes of administration. The analgesic” for “The analgesic”

[4] = test system: analgesic activity, naloxone antagonism; assay: Block of analgesic activity by naloxone; assay type: in vivo; settings: naloxone as antagonist
Excerpt: as §1

cough in dogs = assay: Antitussive activity in the dog (method of Stefko and Benson); settings: for ED50: Canis lupus familiaris
[5] = sc, Table 1, s.c. 15 min before phenylquinone 2 mg/kg i.p., 50 percent reduction in number of writhes vs control, read-out: ED50
[6] = central, Table 4, mice, intraventricular, read-out: Phenylquinone-induced Writhing ED50, mice, intraventricular
[7] = sc, Table 4, mice, subcutaneous, read-out: Phenylquinone-induced Writhing ED50, mice, subcutaneous
[8] = Table 4, mice, oral, read-out: Phenylquinone-induced Writhing ED50, mice, oral
[9] = oral, read-out: Phenylquinone-induced Writhing ED50, rats, oral
[10] = sc, subcutaneous, read-out: Phenylquinone-induced Writhing ED50, rats, subcutaneous
[11] = po, read-out: ED50, antitussive, oral
[12] = sc, read-out: ED50, antitussive, s. c.

Compound | ED50 [1, 5] [mg/kg] | analgesic activity (in words) [1] | inhibition in vivo at 10 mg/kg [2] [%] | antitussive activity (in words) [2] | ED50 (cough in dogs; [11]) [mg/kg] | ED50 (cough in dogs; [12]) [mg/kg] | further results
CNCCN1CCOc2ccc(Cl)cc2C1c1ccccc1 (stereo not shown) [BL-5366, 7-Chloro-4-(2-methylaminoethyl)-5-phenyl-2,3,4,5-tetrahydro-1,4,-benzoxazepine dihydrochloride] | 13 | little or no such activity | 0 | little or no such activity | – | – | –
CCN(CC)CCN1CCOc2ccc(Cl)cc2C1c1ccccc1.Cl.Cl (stereo not shown) [BL-5372, 7-Chloro-4-(2-diethylaminoethyl)-5-phenyl-2,3,4,5-tetrahydro-1,4-benzoxazepine dihydrochloride] | 10 | little or no such activity | 0 | little or no such activity | – | – | –
Cl.Cl.Clc1ccc2c(c1)C(c1ccccc1)N(CCN1CCCC1)CCO2 (stereo not shown) [BL-5397, 7-Chloro-4-(2-pyrrolidinoethyl)-5-phenyl-2,3,4,5-tetrahydro-1,4-benzoxazepine dihydrochloride] | 2.5 | valuable analgesic activity | 0 | – | – | – | –
Cl.Cl.Clc1ccc2c(c1)C(c1ccccc1)N(CCN1CCOCC1)CCO2 (stereo not shown) [BL-5405, 7-Chloro-4-(2-morpholinoethyl)-5-phenyl-2,3,4,5-tetrahydro-1,4-benzoxazepine dihydrochloride] | > 40 | – | 30 | – | – | – | –
Cl.Cl.Clc1ccc2c(c1)C(c1ccccc1)N(CCN1CCCCC1)CCO2 (stereo not shown) [BL-5409, 7-Chloro-4-(2-piperidinoethyl)-5-phenyl-2,3,4,5-tetrahydro-1,4-benzoxazepine dihydrochloride] | 9 | – | 0 | – | – | – | –
CN1CCN(CCN2CCOc3ccc(Cl)cc3C2c2ccccc2)CC1.Cl.Cl.Cl (stereo not shown) [BL-5451, 7-Chloro-4-[2-(4-methylpiperazino)ethyl]-5-phenyl-2,3,4,5-tetrahydro-1,4-benzoxazepine trihydrochloride] | 19 | – | 0 | – | – | – | –
CN(C)CCN1CCOc2ccc(Cl)cc2C1c1ccccc1.Cl.Cl (stereo not shown) [BL-R845, 7-Chloro-4-(2-dimethylaminoethyl)-5-phenyl-2,3,4,5-tetrahydro-1,4-benzoxazepine dihydrochloride] | – | effective analgesic | 48 | effective analgesic and antitussive agent | 2 to 5 | 0.2 to 0.5 | ED50 [1, 6]: 0.31 mg/kg; ED50 [1, 7]: 1.3 mg/kg; ED50 [1, 8]: 11.6 mg/kg; ED50 [3, 9]: 12.8 mg/kg; ED50 [3, 10]: 1 mg/kg; analgesic activity, mouse hot plate (mouse hot plate): relative lack of analgesic activity; analgesic activity, rat tail flick (rat tail flick): relative lack of analgesic activity; activity in the rodent writhing tests (rodent writhing): good activity; effect of naloxone on analgesic activity [4]: does not block the analgesic activity; antitussive activity compared with nefopam or codeine (cough in dogs; dog, both routes of administration): more active than nefopam or codeine
COc1ccc2c3c1O[C@H]1[C@@H](O)C=C[C@H]4[C@@H](C2)N(C)CC[C@@]341 [codeine] | – | – | – | – | 7.8 | 1.5 | –
CN1CCOC(c2ccccc2)c2ccccc2C1 (stereo not shown) [nefopam, 5 methyl-1-phenyl-3,4,5,6-tetrahydro-1H-2,5-benzoxazocine, reference compound] | – | – | 0 | – | > 20 | 2 to 5 | ED50 [1, 6]: 0.14 mg/kg; ED50 [1, 7]: 1.1 mg/kg; ED50 [1, 8]: 22 mg/kg; ED50 [3, 9]: 9.6 mg/kg; ED50 [3, 10]: 1 mg/kg; analgesic activity, mouse hot plate (mouse hot plate): relative lack of analgesic activity; analgesic activity, rat tail flick (rat tail flick): relative lack of analgesic activity; activity in the rodent writhing tests (rodent writhing): good activity; effect of naloxone on analgesic activity [4]: does not block the analgesic activity
